Earlier results on 1 compound are cited in patent US7507425B2, “Method for the treatment of cachexia” (The Quigley Corporation, priority 2005, dated 2009).

The test system of the data set is nitric oxide synthase (NOS). The settings on record: Northern-blot and immunoblotting; macrophages activated with vs without curcumin. A general note: In western blotting, separated proteins are transferred to a membrane and probed.

Take `COc1cc(/C=C/C(=O)CC(=O)/C=C/c2ccc(O)c(OC)c2)ccc1O` [curcumin]: the “levels of mRNA and 130-k Da protein of inducible NOS” value was “significantly reduced levels”.
